This series is described as follows: Stability of dissolution standards and dissolution samples at ambient lab conditions. Type of series: physicochemical. As to the method:
40.5±4.0 mg of valbenazine ditosylate reference standard (equivalent to 22.22 mg of valbenazine free base) was added to a 250-mL volumetric flask. Diluent (0.1 N HCl dissolution media) was added to the flask, up to about 75% of the volume of the flask. The contents of the flask were mixed well, and sonicated if necessary, to provide a standard solution containing 0.0889 mg/mL valbenazine free base. The standard was stable for 17 days, stored at ambient lab conditions.
10.12±1.0 mg of valbenazine ditosylate reference standard (equivalent to 5.55 mg of valbenazine free base) was added to a 250-mL volumetric flask. Diluent (0.1N HCl dissolution media) was added to the flask, up to about 75% of the volume of the flask. […]
(§1) Dissolution was measured according to Table 8, above. After completion of the dissolution, the end temperature and observations for each vessel were recorded. […]
as §1
(§2) Dissolution was measured according to Table 9, above. After completion of the dissolution, the end temperature and observations for each vessel were recorded. […]
as §2

Each structure is given as a SMILES string.

Regarding `COc1cc2c(cc1OC)[C@H]1C[C@@H](OC(=O)[C@@H](N)C(C)C)[C@H](CC(C)C)CN1CC2.Cc1ccc(S(=O)(=O)O)cc1.Cc1ccc(S(=O)(=O)O)cc1` [L-Valine, (2R,3R,11bR)-1,3,4,6,7,11b-hexahydro-9,10-dimethoxy-3-(2-methylpropyl)-2H-benzo[a]quinolizin-2-yl ester, 4-methylbenzenesulfonate (1:2)], the “time the dissolution standard was stable” value (0.0222 mg/mL valbenazine free base in 0.1N HCl) is listed as 7 days and the “time the dissolution standard was stable” value (0.0889 mg/mL valbenazine free base in 0.1 N HCl) is reported as 17 days.

Source of the values: US20250000805A1, “VALBENAZINE COMPOSITIONS” (Neurocrine Biosciences, Inc., priority 2021, published 2025).
